Patent EP1038533A1, “MEDICINAL COMPOSITIONS FOR TREATING IMMUNODEFICIENCY DISEASES” (Nippon Kayaku Kabushiki Kaisha, priority 1997, dated 1999)
Where two headings read alike, the source gives them in different places.

Legend:
[1] = tested on: HIV (human immunodeficiency virus); assay type: in vivo; conditions: patient
Method: (§1) The therapeutic effect of 15-deoxyspergualin for immunodeficiency was clinically investigated by administering the compound to HIV-infected patients. The details are shown below.
To a patient who was diagnosed as a HIV positive 1 year and 10 months ago, the 15-deoxyspergualin injection of Example 1 later described was intravenously administered for consecutive 15 days in a dose of 0.15 mg/kg body weight/day. This cycle was made one course. Then, no drug period was set for 6 weeks followed by repetition with 2 courses with the same interval between the second course and the third couse, as well.
The CD4^+/CD8^+ level was measured immediately before and after each course and, 3 months and 2 years after the completion of Course 3, namely, 8 measurements in total.

[2] = tested on: HIV (human immunodeficiency virus); assay: Test Example 2: clinical administration of 15-deoxyspergualin injection to five HIV positive carriers; assay type: in vivo; conditions: 0.15 mg/kg body weight/day i.v. 14 days per course; for fatigue (malaise) of the worst kind: 3 courses
Method: as §1
To five (5) carriers diagnosed as HIV positive, the 15-deoxyspergualin injection was intravenously administered for consecutive 14 days in a dose of 0.15 mg/kg body weight/day. This cycle was made one course. Then, no drug period was set for 6 weeks followed by repetition with 2 courses with the same interval between the second course and the third course, as well. The CD4^+ cell count, CD4^+ /CD8^+ level and virus load, etc. were measured immediately before and after each course and 6 weeks after the completion of Course 3, respectively.

[3] = throughout the entire period of the treatment
[4] = Case 1, 6 Weeks after completion of Course 3
[5] = Case 1, Immediately after Course 1
[6] = Case 1, Immediately after Course 2
[7] = Case 1, Immediately after Course 3
[8] = Case 1, Immediately before Course 1 (before treatment)
[9] = Case 1, Immediately before Course 2
[10] = Case 1, Immediately before Course 3
[11] = Case 2, 6 Weeks after completion of Course 3
[12] = Case 2, Immediately after Course 1
[13] = Case 2, Immediately after Course 2
[14] = Case 2, Immediately after Course 3
[15] = Case 2, Immediately before Course 1 (before treatment)
[16] = Case 2, Immediately before Course 2
[17] = Case 2, Immediately before Course 3
[18] = Case 3, 6 Weeks after completion of Course 3
[19] = Case 3, Immediately after Course 1
[20] = Case 3, Immediately after Course 2
[21] = Case 3, Immediately after Course 3
[22] = Case 3, Immediately before Course 1 (before treatment)
[23] = Case 3, Immediately before Course 2
[24] = Case 3, Immediately before Course 3
[25] = Case 4, 6 Weeks after completion of Course 3
[26] = Case 4, Immediately after Course 1
[27] = Case 4, Immediately after Course 2
[28] = Case 4, Immediately after Course 3
[29] = Case 4, Immediately before Course 1 (before treatment)
[30] = Case 4, Immediately before Course 2
[31] = Case 4, Immediately before Course 3
[32] = Case 5, 6 Weeks after completion of Course 3
[33] = Case 5, Immediately after Course 1
[34] = Case 5, Immediately after Course 2
[35] = Case 5, Immediately after Course 3
[36] = Case 5, Immediately before Course 1 (before treatment)
[37] = Case 5, Immediately before Course 2
[38] = Case 5, Immediately before Course 3

For `N=C(N)NCCCCCCC(=O)NC(O)C(=O)NCCCCNCCCN` (centres unmarked) [15-deoxyspergualin], the “CD4^+/CD8^+ level” value ([1]; 0.15 mg/kg body weight/day i.v. 15 days per course, 2 Years after completion of Course 3) was 0.90, the “CD4^+/CD8^+ level” value ([1]; 0.15 mg/kg body weight/day i.v. 15 days per course, 3 Months after completion of Course 3) was 0.93 and the “CD4^+/CD8^+ level” value ([1]; 0.15 mg/kg body weight/day i.v. 15 days per course, Immediately after Course 1) was 0.72. For the same molecule, the “CD4^+/CD8^+ level” value ([1]; 0.15 mg/kg body weight/day i.v. 15 days per course, Immediately after Course 2) was 0.75, the “CD4^+/CD8^+ level” value ([1]; 0.15 mg/kg body weight/day i.v. 15 days per course, Immediately after Course 3) was 0.84 and the “CD4^+/CD8^+ level” value ([1]; 0.15 mg/kg body weight/day i.v. 15 days per course, Immediately before Course 1 (before treatment)) was 0.68. For the same molecule, the “CD4^+/CD8^+ level” value ([1]; 0.15 mg/kg body weight/day i.v. 15 days per course, Immediately before Course 2) was 0.78, the “CD4^+/CD8^+ level” value ([1]; 0.15 mg/kg body weight/day i.v. 15 days per course, Immediately before Course 3) was 0.87 and the “decrease of CD4^+/CD8^+ level immediately after Courses 2 and 3 versus immediately before the courses” value ([1]; 0.15 mg/kg body weight/day i.v. 15 days per course, attributed to weak bone marrow suppression) was 0.03. The complaint of fatigue ([1]; 0.15 mg/kg body weight/day i.v. 15 days, after Course 1 was finished) was “disappeared completely”, the leucocyte count [1, 3] was “approximately 6200” and the other side effect [1, 3] was “no other side effect was observed at all”. For the same molecule, the “CD4^+ T cell counts” value [2, 4] was 760 µL⁻¹, the “CD4^+/CD8^+ levels” value [2, 4] was 0.93 and the Virus loads [2, 4] was 6000 particles/ml. For the same molecule, the “CD4^+ T cell counts” value [2, 5] was 680 µL⁻¹, the “CD4^+/CD8^+ levels” value [2, 5] was 0.82 and the Virus loads [2, 5] was 8600 particles/ml. For the same molecule, the “CD4^+ T cell counts” value [2, 6] was 740 µL⁻¹, the “CD4^+/CD8^+ levels” value [2, 6] was 0.86 and the Virus loads [2, 6] was 8000 particles/ml. For the same molecule, the “CD4^+ T cell counts” value [2, 7] was 750 µL⁻¹, the “CD4^+/CD8^+ levels” value [2, 7] was 0.93 and the Virus loads [2, 7] was 7000 particles/ml. The “CD4^+ T cell counts” value [2, 8] was 680 µL⁻¹, the “CD4^+/CD8^+ levels” value [2, 8] was 0.78 and the Virus loads [2, 8] was 12000 particles/ml. For the same molecule, the “CD4^+ T cell counts” value [2, 9] was 730 µL⁻¹, the “CD4^+/CD8^+ levels” value [2, 9] was 0.80 and the Virus loads [2, 9] was 9000 particles/ml. The “CD4^+ T cell counts” value [2, 10] was 720 µL⁻¹, the “CD4^+/CD8^+ levels” value [2, 10] was 0.85 and the Virus loads [2, 10] was 8200 particles/ml. The “CD4^+ T cell counts” value [2, 11] was 740 µL⁻¹, the “CD4^+/CD8^+ levels” value [2, 11] was 0.78 and the Virus loads [2, 11] was 13000 particles/ml. The “CD4^+ T cell counts” value [2, 12] was 740 µL⁻¹, the “CD4^+/CD8^+ levels” value [2, 12] was 0.72 and the Virus loads [2, 12] was 13000 particles/ml. The “CD4^+ T cell counts” value [2, 13] was 730 µL⁻¹, the “CD4^+/CD8^+ levels” value [2, 13] was 0.77 and the Virus loads [2, 13] was 14000 particles/ml. The “CD4^+ T cell counts” value [2, 14] was 750 µL⁻¹, the “CD4^+/CD8^+ levels” value [2, 14] was 0.79 and the Virus loads [2, 14] was 14000 particles/ml. For the same molecule, the “CD4^+ T cell counts” value [2, 15] was 750 µL⁻¹, the “CD4^+/CD8^+ levels” value [2, 15] was 0.76 and the Virus loads [2, 15] was 15000 particles/ml. The “CD4^+ T cell counts” value [2, 16] was 750 µL⁻¹, the “CD4^+/CD8^+ levels” value [2, 16] was 0.78 and the Virus loads [2, 16] was 13000 particles/ml. For the same molecule, the “CD4^+ T cell counts” value [2, 17] was 760 µL⁻¹, the “CD4^+/CD8^+ levels” value [2, 17] was 0.80 and the Virus loads [2, 17] was 15000 particles/ml. The “CD4^+ T cell counts” value [2, 18] was 800 µL⁻¹, the “CD4^+/CD8^+ levels” value [2, 18] was 0.90 and the Virus loads [2, 18] was 6000 particles/ml. For the same molecule, the “CD4^+ T cell counts” value [2, 19] was 570 µL⁻¹, the “CD4^+/CD8^+ levels” value [2, 19] was 0.73 and the Virus loads [2, 19] was 11000 particles/ml. For the same molecule, the “CD4^+ T cell counts” value [2, 20] was 600 µL⁻¹, the “CD4^+/CD8^+ levels” value [2, 20] was 0.75 and the Virus loads [2, 20] was 7000 particles/ml. For the same molecule, the “CD4^+ T cell counts” value [2, 21] was 720 µL⁻¹, the “CD4^+/CD8^+ levels” value [2, 21] was 0.90 and the Virus loads [2, 21] was 6000 particles/ml. For the same molecule, the “CD4^+ T cell counts” value [2, 22] was 550 µL⁻¹, the “CD4^+/CD8^+ levels” value [2, 22] was 0.69 and the Virus loads [2, 22] was 17000 particles/ml. For the same molecule, the “CD4^+ T cell counts” value [2, 23] was 590 µL⁻¹, the “CD4^+/CD8^+ levels” value [2, 23] was 0.72 and the Virus loads [2, 23] was 11000 particles/ml. For the same molecule, the “CD4^+ T cell counts” value [2, 24] was 650 µL⁻¹, the “CD4^+/CD8^+ levels” value [2, 24] was 0.84 and the Virus loads [2, 24] was 8000 particles/ml. The “CD4^+ cell counts” value [2, 25] was 910 µL⁻¹, the “CD4^+/CD8^+ levels” value [2, 25] was 0.92 and the Virus loads [2, 25] was 13000 particles/ml. The “CD4^+ cell counts” value [2, 26] was 710 µL⁻¹, the “CD4^+/CD8^+ levels” value [2, 26] was 0.75 and the Virus loads [2, 26] was 20000 particles/ml. The “CD4^+ cell counts” value [2, 27] was 760 µL⁻¹, the “CD4^+/CD8^+ levels” value [2, 27] was 0.85 and the Virus loads [2, 27] was 18000 particles/ml. For the same molecule, the “CD4^+ cell counts” value [2, 28] was 850 µL⁻¹, the “CD4^+/CD8^+ levels” value [2, 28] was 0.94 and the Virus loads [2, 28] was 15000 particles/ml. For the same molecule, the “CD4^+ cell counts” value [2, 29] was 640 µL⁻¹, the “CD4^+/CD8^+ levels” value [2, 29] was 0.73 and the Virus loads [2, 29] was 25000 particles/ml. For the same molecule, the “CD4^+ cell counts” value [2, 30] was 770 µL⁻¹, the “CD4^+/CD8^+ levels” value [2, 30] was 0.83 and the Virus loads [2, 30] was 20000 particles/ml. The “CD4^+ cell counts” value [2, 31] was 840 µL⁻¹, the “CD4^+/CD8^+ levels” value [2, 31] was 0.90 and the Virus loads [2, 31] was 17000 particles/ml. The “CD4^+ cell counts” value [2, 32] was 900 µL⁻¹, the “CD4^+/CD8^+ levels” value [2, 32] was 0.90 and the Virus loads [2, 32] was 6000 particles/ml. For the same molecule, the “CD4^+ cell counts” value [2, 33] was 750 µL⁻¹, the “CD4^+/CD8^+ levels” value [2, 33] was 0.80 and the Virus loads [2, 33] was 6000 particles/ml. The “CD4^+ cell counts” value [2, 34] was 820 µL⁻¹, the “CD4^+/CD8^+ levels” value [2, 34] was 0.83 and the Virus loads [2, 34] was 6500 particles/ml. For the same molecule, the “CD4^+ cell counts” value [2, 35] was 890 µL⁻¹, the “CD4^+/CD8^+ levels” value [2, 35] was 0.87 and the Virus loads [2, 35] was 6000 particles/ml. For the same molecule, the “CD4^+ cell counts” value [2, 36] was 780 µL⁻¹, the “CD4^+/CD8^+ levels” value [2, 36] was 0.79 and the Virus loads [2, 36] was 6000 particles/ml. The “CD4^+ cell counts” value [2, 37] was 810 µL⁻¹, the “CD4^+/CD8^+ levels” value [2, 37] was 0.81 and the Virus loads [2, 37] was 7000 particles/ml. The “CD4^+ cell counts” value [2, 38] was 880 µL⁻¹, the “CD4^+/CD8^+ levels” value [2, 38] was 0.85 and the Virus loads [2, 38] was 6500 particles/ml. The “fatigue (malaise) of the worst kind” value ([2]; Cases 1, 3 and 4) was “improved” and the “fatigue (malaise) of the worst kind” value ([2]; Cases 2 and 5) was “no change”.
